According to US5767142A, “Trisbenzimidazoles useful as topoisomerase I inhibitors” (Rutgers, The State University of New Jersey, priority 1996, dated 1998):
Values after ≈ are worked out from the molar mass of the structure shown. Like-named read-outs stand apart in the source and are kept apart here.

Legend:
[1] = system: CPT-K5 cells (camptothecin-resistant variant of RPMI 8402); conditions: as reported by A. Y. Chen et al., Cancer Res., 53, 1332 (1993); cited from earlier work
[2] = system: human lymphoblast RPMI 8402 cells; experiment: MTT cytotoxicity assay, RPMI 8402; assay type: cell-based; conditions: for IC50: Homo sapiens, RPMI 8402, 96 h, read-out: Cytotoxicity IC50, RPMI
Procedure: (§1) The cytotoxicity was determined using the as MTT-microtiter plate tetrazolinium cytotoxicity assay (MTA) following the procedures of F. Denizot et al., J. Immunol. […] The cytotoxicity assay was performed using 96-well microtiter plates. Cells were grown in suspension at 37° C. in 5% CO2 and maintained by regular passage in RPMI medium supplemented with 10% heat inactivated fetal bovine serum, L-glutamine (2 mM), penicillin (100 U/ml), and streptomycin (0.1 mg/ml). For determination of IC50, cells were exposed continuously with varying concentrations of drug concentrations and MTT assays were performed at the end of the fourth day.

[3] = system: CPT-K5 cells (camptothecin-resistant variant of RPMI 8402); experiment: MTT cytotoxicity assay, camptothecin-resistant CPT-K5; assay type: cell-based, human; conditions: for IC50: Homo sapiens, CPT-K5, 96 h, read-out: Cytotoxicity IC50, CPT-K5
Procedure: as §1

[4] = biological target: T1, calf thymus topoisomerase I (Bos taurus, UniProt A0AAA9TV68); experiment: Topoisomerase I-mediated DNA cleavage assay (calf thymus topoisomerase I, plasmid YEpG); assay type: biochemical
T1 construct: plasmid YEpG DNA cleavage assay
T1 sequence (A0AAA9TV68 2-769): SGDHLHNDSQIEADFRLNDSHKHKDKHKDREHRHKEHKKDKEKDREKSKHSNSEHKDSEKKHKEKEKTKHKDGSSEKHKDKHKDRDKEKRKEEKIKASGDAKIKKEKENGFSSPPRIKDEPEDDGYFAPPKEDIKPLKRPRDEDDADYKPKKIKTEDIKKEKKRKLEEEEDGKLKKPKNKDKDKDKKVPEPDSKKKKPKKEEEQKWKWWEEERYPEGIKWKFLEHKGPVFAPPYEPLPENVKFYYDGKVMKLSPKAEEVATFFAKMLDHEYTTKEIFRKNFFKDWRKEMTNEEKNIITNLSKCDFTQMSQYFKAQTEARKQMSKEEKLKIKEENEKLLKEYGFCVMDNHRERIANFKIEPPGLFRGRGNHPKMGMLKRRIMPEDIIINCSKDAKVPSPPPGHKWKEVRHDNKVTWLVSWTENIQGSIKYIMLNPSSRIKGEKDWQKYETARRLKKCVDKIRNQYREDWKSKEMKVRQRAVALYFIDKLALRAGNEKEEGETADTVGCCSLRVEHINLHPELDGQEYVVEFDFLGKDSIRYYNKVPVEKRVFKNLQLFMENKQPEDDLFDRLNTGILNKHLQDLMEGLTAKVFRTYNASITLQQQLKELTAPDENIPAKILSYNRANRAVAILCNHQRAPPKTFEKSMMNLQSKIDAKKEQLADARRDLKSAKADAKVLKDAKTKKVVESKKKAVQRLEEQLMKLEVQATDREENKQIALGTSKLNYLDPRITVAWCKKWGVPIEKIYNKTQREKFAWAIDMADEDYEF
From the text: DNA topoisomerase I was purified from calf thymus gland as reported previously by B. D. Halligan et al., J. Biol. Chem., 260, 2475 (1985). Plasmid YEpG was also purified by the alkali lysis method followed by phenol deproteination and CsCl/ethidium isopycnic centrifugation as described by T. Mariatis et al., Molecular Cloning, A Laboratory Manual, Cold Spring Harbor Labs, NY (1982) at pages 149-185. The end-labeling of the plasmid was accomplished as previously described by L. F. Liu et al., J. Biol. Chem., 258, 15365 (1983). The cleavage assays were performed as previously reported by A. Y. Chen et al., Cancer Res., 53, 1332 (1993). Human topoisomerase was isolated as a recombinant fusion protein using a T7 expression system.
^b Topoisomerase I cleavage values are reported as REC, Relative
Effective Concentration, i.e. concentrations relative to Hoechst 33342,
whose value is arbitrarily assumed as 1, that are able to produce the sam
cleavage on the plasmid DNA in the presence of calf thymus topoisomerase
I. Cleavage is calculated from the intensity of the strongest Hoechst

[5] = system: KBV-1 cells (multidrug-resistant variant of KB3-1, overexpress MDR1); experiment: MTT cytotoxicity assay, multidrug-resistant KBV-1; assay type: cell-based, human; conditions: for IC50: Homo sapiens, KB-V1, 96 h, read-out: Cytotoxicity IC50, KBV-1
Procedure: as §1
(§2) These cells were grown as monolayer cultures at in 5% CO2 and maintained by regular passage in Dulbecco's minimal essential medium supplemented with 10% heat inactivated fetal bovine serum. KBV-1 cells were similarly maintained except they were grown in the presence of 1 μg/ml vinblastine.

[6] = system: human ovarian tumor cell line, A2780; experiment: Cytotoxicity, ovarian tumor cell line A2780; assay type: cell-based
Procedure: (§3) The cytotoxicity was determined using the as MTT-microtiter plate tetrazolinium cytotoxicity assay (MTA) following the procedures of F. Denizot et al., J. Immunol. Methods, 89, 271 (1986); J. Carmichael et al., Cancer Res., 47, 936 (1987) and T. J. Mosmann et al., Immunol. Methods, 65, 55 (1983). The human lymphoblast RPMI 8402 and its camptothecin-resistant variant cell line, CPT-K5 were provided by Dr. Toshiwo Andoh (Aichi Cancer Center Research Institute, Nagoya, Japan). See, for example, T. Andoh et al., Adv. Pharmacol., 29B, 93 (1994). The cytotoxicity assay was performed using 96-well microtiter plates. Cells were grown in suspension at 37° C. in 5% CO2 and maintained by regular passage in RPMI medium supplemented with 10% heat inactivated fetal bovine serum, L-glutamine (2 mM), penicillin (100 U/ml), and streptomycin (0.1 mg/ml). For determination of IC50, cells were exposed continuously with varying concentrations of drug concentrations and MTT assays were performed at the end of the fourth day.

[7] = system: CPT-2000, a variant of A2780; experiment: Cytotoxicity, camptothecin-resistant CPT-2000; assay type: cell-based; conditions: Homo sapiens
Procedure: as §3

[8] = system: human MDR1 (P-glycoprotein); experiment: Substrate of human MDR1 (P-glycoprotein), from cytotoxicity in KB 3-1 and KB V-1 cells; assay type: cell-based; conditions: concluded from KB 3-1 / KB V-1 IC50 values
Procedure: The drug sensitive human epidermoid carcinoma KB3-1 cell line (S. Aliyama et al., Somatic Cell Mol. Genet, 11, 117 (1985)) and its vinblastine-selected multidrug-resistant variant KBV-1 cells (D. W. Shen et al., Science, 32, 643 (1986)) were provided by Dr. Michael Gottesmann (National Cancer Institute, Bethesda, ML). These cells were grown as monolayer cultures at in 5% CO2 and maintained by regular passage in Dulbecco's minimal essential medium supplemented with 10% heat inactivated fetal bovine serum. KBV-1 cells were similarly maintained except they were grown in the presence of 1 μg/ml vinblastine.
The cytotoxic activity of Hoechst 33342 and 13 was also evaluated against KB 3-1 and KB V-1 cells. The primary difference between these cell lines is in the degree to which human MDR1 (P-glycoprotein) is expressed. […] Pharmacol., 245, 29B (1994).

[9] = system: human epidermoid carcinoma KB3-1 cell line; experiment: MTT cytotoxicity assay, KB3-1; assay type: cell-based; conditions: KB 3-1, 96 h, 4 days continuous drug exposure
Procedure: as §1, §2

[10] = system: mammalian tumor cells; experiment: Cytotoxicity to tumor cells, general statement; assay type: cell-based; conditions: cell line not specified
[11] = system: fungi; experiment: Antifungal activity
[12] = 4 days continuous drug exposure

In the case of CC[C@@]1(O)C(=O)OCc2c1cc1n(c2=O)Cc2cc3ccccc3nc2-1 [camptothecin], the “Relative resistance of camptothecin (ratio of IC50 values of resistant versus drug sensitive cell line)” value [1] is listed as 2,500 fold.
With c1ccc2[nH]c(-c3ccc4[nH]c(-c5ccc6[nH]cnc6c5)nc4c3)nc2c1 [Compound 10, 2-[2'-(Benzimidazol-5"-yl)benzimidazol-5'-yl]benzimidazole] the “Cytotoxicity towards RPMI 8402 (in words)” value [2] was “failed to exhibit significant cytotoxicity”, the IC50 [2] was 14000 nM and the IC50 [3] was 28000 nM.
With N#Cc1ccc2nc(-c3ccc4nc[nH]c4c3)[nH]c2c1 [Compound 19, 5-Cyano-2-(benzimidazol-5'-yl)benzimidazole] the IC50 [2, 12] was greater than 25000 nM.
With c1ccc(-c2ccc3nc(-c4ccc5nc(-c6ccc7nc[nH]c7c6)[nH]c5c4)[nH]c3c2)cc1 [Compound 13, 5-Phenyl-2-[2'(benzimidazol-5"-yl)benzimidazol-5'-yl]benzimidazole] the “Potency as topoisomerase I inhibitor (in words)” value [4] was “approximately one-half as potent as Hoechst 33342 as a topoisomerase I inhibitor”, the “Cytotoxicity towards RPMI 8402 (in words)” value [2] was “significant cytotoxicity” and the IC50 [2, 12] was 90 nM. For the same molecule, the “Cytotoxicity against CPT-K5 cells (in words)” value [3] was “effective against camptothecin-resistant CPT-K5 cells”, the “Relative resistance (ratio of IC50 values of resistant versus drug sensitive cell line)” value ([3]; CPT-K5 versus RPMI 8402, 5760 min) was “approximately 30 fold” and the IC50 [3] was 580 nM. The IC50 [5] was 350 nM, the “Difference of cytotoxicity between KB 3-1 and KB V-1 cells (in words)” value ([5]; KB 3-1 versus KB V-1) was “little difference between the IC50 values” and the IC50 [6] was 0.015 µg/mL (≈ 0.0352 µM). The IC50 [7] was 0.03 µg/mL (≈ 0.0703 µM) and the “Substrate for human MDR1 (in words)” value [8] was “appears not to be a substrate for human MDR1”.
For N#Cc1ccc2[nH]c(-c3ccc4[nH]c(-c5ccc6[nH]cnc6c5)nc4c3)nc2c1 [Compound 11, 5-Cyano-2-[2'-(benzimidazol-5"-yl)benzimidazol-5'-yl]benzimidazole], the “Cytotoxicity towards RPMI 8402 (in words)” value [2] was “failed to exhibit significant cytotoxicity”, the IC50 [2, 12] was greater than 25000 nM and the IC50 [3, 12] was greater than 25000 nM.
In the case of c1cncc(-c2ccc3nc(-c4ccc5nc(-c6ccc7nc[nH]c7c6)[nH]c5c4)[nH]c3c2)c1 [Compound 15, 5-(3-Pyridyl)-2-[2'-(benzimidazol-5"-yl)benzimidazol-5'-yl]benzimidazole], the “Potency as topoisomerase I inhibitor (in words)” value [4] is reported as “somewhat more active than the 2-pyridyl derivative, 14, as topoisomerase I inhibitors”, the IC50 [2, 12] is reported as 35 nM and the IC50 [3] is reported as 2500 nM. For the same molecule, the IC50 [9] was 20 nM, the IC50 [5, 12] was 20 nM and the “Cytotoxicity to tumor cells (in words)” value [10] was “somewhat more active than the 2-pyridyl derivative, 14, as topoisomerase I inhibitors as well as cytotoxic agents”.
In the case of Clc1ccc(-c2ccc3nc(-c4ccc5nc(-c6ccc7nc[nH]c7c6)[nH]c5c4)[nH]c3c2)cc1 [JSKIV-47, 5-(p-Chlorophenyl)-2-[2'-(benzimidazol-5"-yl)benzimidazol-5'-yl]-benzimidazole], the IC50 [2, 12] is reported as 90 nM and the IC50 [3, 12] is reported as 200 nM.
For c1cc(-c2ccc3nc(-c4ccc5nc(-c6ccc7nc[nH]c7c6)[nH]c5c4)[nH]c3c2)ccn1 [Compound 16, 5-(4-Pyridyl)-2-[2'-(benzimidazol-5"-yl)benzimidazol-5'-yl]benzimidazole], the “Potency as topoisomerase I inhibitor (in words)” value [4] was “somewhat more active than the 2-pyridyl derivative, 14, as topoisomerase I inhibitors”, the IC50 [2, 12] was 35 nM and the IC50 [3] was 2500 nM. The IC50 [9] was 20 nM, the IC50 [5, 12] was 10 nM and the “Cytotoxicity to tumor cells (in words)” value [10] was “somewhat more active than the 2-pyridyl derivative, 14, as topoisomerase I inhibitors as well as cytotoxic agents”.
For CCCc1ccc2nc(-c3ccc4nc(-c5ccc6nc[nH]c6c5)[nH]c4c3)[nH]c2c1 [Compound 12, 5-Propyl-2-[2'-(benzimidazol-5"-yl)benzimidazol-5'-yl]benzimidazole], the “Potency as topoisomerase I inhibitor (in words)” value [4] was “much less active than either 10, 11, or 13 as an inhibitor of topoisomerase I”, the IC50 [2, 12] was 7600 nM and the IC50 [3, 12] was 20000 nM. The “Cytotoxicity to tumor cells (in words)” value [10] was “weak cytotoxicity”.
In the case of Clc1ccc2nc(-c3ccc4nc(-c5ccc6nc[nH]c6c5)[nH]c4c3)[nH]c2c1 [JSKIV-68, 5-Chloro-2-[2'-(benzimidazol-5"-yl)benzimidazol-5'-yl]-benzimidazole], the IC50 [2, 12] is reported as 1040 nM and the IC50 [3] is reported as 650 nM.
In the case of Brc1ccc2nc(-c3ccc4nc(-c5ccc6nc[nH]c6c5)[nH]c4c3)[nH]c2c1 [JSKIV-37, 5-Bromo-2-[2'-(benzimidazol-5"-yl)benzimidazol-5'-yl]-benzimidazole], the IC50 [3] is reported as 1400 nM.
c1ccc(-c2ccc3nc(-c4ccc5nc(-c6ccc7nc[nH]c7c6)[nH]c5c4)[nH]c3c2)nc1 [Compound 14, 5-(2-Pyridyl)-2-[2'-(benzimidazol-5"-yl)benzimidazol-5'-yl]benzimidazole] showed an IC50 [2, 12] of 160 nM, an IC50 [3] of 5800 nM and an IC50 [9] of 50 nM. For the same molecule, the IC50 [5, 12] was 90 nM and the “Antifungal activity (in words)” value [11] was “exhibits antifungal activity”.
